Measured values: US20040063763A1, “2-METHOXYIMINO-2(PYRIDINYLOXYMETHYL)PHENYL ACETAMIDES USEFUL AS FUNGICIDES” (priority 2003, published 2004)

Columns and labels:
Format in all cases: in vivo
Puccinia recondita = experiment: Brown rust of wheat 1-day protectant whole plant test (PUCCRT 1DP); settings: 100 ppm spray to run off, wheat (cultivar Monon), inoculated after 24 hours
Phytophthora infestans = settings: 100 ppm spray to run off, tomatoes (cultivar Rutgers), inoculated after 24 hours
Erysiphe graminis = experiment: Powdery Mildew of Wheat 1-day protectant whole plant test (ERYSGT 1DP); settings: 100 ppm spray to run off, wheat (cultivar Monon), inoculated after 24 hours

CNC(=O)/C(=N/OC)c1ccccc1COc1ncc(C2=NOCC2)cc1C [Compound 1, (2E)-2-[2˜({[5-(4,5-dihydroisoxazol-3-yl)-3-methylpyridin-2-yl]oxy}methyl)phenyl]-2-(methoxyimino)-N-methylethanamide]
>95%: PUCCRT 1DP percent control of the plant disease (Puccinia recondita) | PHYTIN 1DP percent control of the plant disease (Phytophthora infestans) | ERYSGT 1DP percent control of the plant disease (Erysiphe graminis)
